Values of other authors as cited in patent US20050096371A1, “Topical pharmaceutical compositions” (priority 2003, published 2005).

Columns and labels:
human subjects = settings: repeated insult patch test, 50 human subjects, total of 15 applications; manufacturer's brochure
humans = settings: Marzulli and Maibach's method

CN1CCCC1=O [Pharmasolve®, N-methyl-2-pyrrolidone]
primary dermal irritation / sensitization (human subjects): neither a primary dermal irritant nor a sensitizer
PII (rabbit skin): 0.5
irritation to rabbit skin (rabbit skin): practically nonirritating

CCOCCOCCO [Transcutol®, diethylene glycol monoethyl ether]
cutaneous irritation / sensitization (humans): nonirritating and non-sensitizing
cutaneous irritation (rabbits): nonirritating
